# PubChem BioAssay (NCI)
#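 The compound was tested at five concentrations on cells cultured in 96-well plates, with a 48-hour exposure period. The concentration for 50% growth inhibition is given as GI50. TGI marks complete inhibition of growth.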
# Legend:
# Test in all cases: DTP human tumour cell line panel, 48 h
# [1] = tested on: CCRF-CEM leukemia
# [2] = tested on: HCC-2998 colon
# [3] = tested on: HOP-62 NSCLC
# [4] = tested on: NCI-H522 lung
# [5] = tested on: SF-268 CNS
# [6] = tested on: SK-MEL-28 melanoma
# [7] = tested on: TK-10 renal
# [8] = tested on: U251 CNS
# [9] = tested on: UACC-62 melanoma
# [10] = tested on: PC-3 prostate
structure (smiles),measurement,setting,value
Cc1nc2sccn2c1C(=O)NNC(N)=S,TGI,[1],> 100 µM
same,TGI,[2],> 100 µM
same,TGI,[3],> 100 µM
same,TGI,[4],> 100 µM
same,TGI,[5],> 100 µM
same,TGI,[6],> 100 µM
same,TGI,[7],> 100 µM
same,TGI,[8],> 100 µM
same,TGI,[9],> 100 µM
COC(=O)[C@]12CC[C@@H](C)[C@H](C)[C@@H]1C1=CC[C@@H]3[C@@]4(C)C(C=O)=C[C@@](C)(COS(C)(=O)=O)C4=CC[C@@]3(C)[C@]1(C)CC2,GI50,[1],0.324 µM
same,TGI,[1],1.47 µM
same,GI50,[2],0.204 µM
same,TGI,[2],0.466 µM
same,GI50,[3],0.303 µM
same,TGI,[3],1.17 µM
same,GI50,[4],0.178 µM
same,TGI,[4],0.371 µM
same,GI50,[5],0.248 µM
same,TGI,[5],0.721 µM
same,GI50,[6],0.198 µM
same,TGI,[6],0.415 µM
same,GI50,[7],0.211 µM
same,TGI,[7],0.512 µM
same,GI50,[8],0.23 µM
same,TGI,[8],0.606 µM
same,GI50,[9],0.2 µM
same,TGI,[9],0.551 µM
C/C(CCN(C)C)=N/O,TGI,[1],7.14 µM
same,TGI,[2],25.2 µM
same,TGI,[3],57 µM
same,TGI,[4],2.55 µM
same,TGI,[5],2.49 µM
same,TGI,[6],14.8 µM
same,TGI,[7],20.2 µM
same,TGI,[8],14.6 µM
same,TGI,[9],24 µM
OC1=CN=C(c2ccccc2)Oc2ccccc21,TGI,[1],> 100 µM
same,TGI,[2],> 100 µM
same,TGI,[3],> 100 µM
same,TGI,[5],> 100 µM
same,TGI,[6],> 100 µM
same,TGI,[7],> 100 µM
same,TGI,[8],> 100 µM
same,TGI,[9],> 100 µM
COc1cc2c(c3c1c(=O)c1ccccc1n3C)C=C([N+](=O)[O-])C(C)(C)O2,TGI,[1],> 100 µM
same,TGI,[3],> 100 µM
same,TGI,[4],> 34.4 µM
same,TGI,[10],> 100 µM
same,TGI,[5],> 100 µM
same,TGI,[7],> 100 µM
same,TGI,[8],> 100 µM
same,TGI,[9],> 100 µM
COC(=O)C1CCC(C)CC1=O (stereo not given),TGI,[1],> 100 µM
same,TGI,[2],> 100 µM
same,TGI,[3],> 100 µM
same,TGI,[4],> 100 µM
same,TGI,[5],> 100 µM
same,TGI,[6],> 100 µM
same,TGI,[7],> 100 µM
same,TGI,[8],> 100 µM
same,TGI,[9],> 100 µM
CNC(=O)OCc1nc(SSc2nc(COC(=O)NC)c(COC(=O)NC)n2C)n(C)c1COC(=O)NC,TGI,[1],> 100 µM
same,TGI,[2],> 100 µM
same,TGI,[3],> 100 µM
same,TGI,[4],> 100 µM
same,TGI,[5],> 100 µM
same,TGI,[6],> 100 µM
same,TGI,[7],> 100 µM
same,TGI,[8],> 100 µM
same,TGI,[9],> 100 µM
CC(C)c1ccc(Cc2ccc(C(C)C)c(NC(=O)C(=O)Cc3cnc4ccccc4n3)c2C(C)C)c(C(C)C)c1NC(=O)C(=O)Cc1cnc2ccccc2n1,TGI,[1],> 100 µM
same,TGI,[2],> 100 µM
same,TGI,[3],> 100 µM
same,TGI,[7],> 100 µM
same,TGI,[8],> 100 µM
same,TGI,[9],> 100 µM
CCOC(=O)C(Cc1ccc(N=NN(C)C)cc1)NC(=O)CC1c2ccccc2-c2ccccc21 (stereo not given),TGI,[1],> 100 µM
same,TGI,[2],> 100 µM
same,TGI,[3],> 100 µM
same,TGI,[4],> 100 µM
same,TGI,[5],> 100 µM
same,TGI,[6],> 100 µM
same,TGI,[7],> 100 µM
same,TGI,[8],> 100 µM
same,TGI,[9],> 100 µM
CCC(Oc1ccc(OC)c2c1C(=O)CCC2)C(=O)O (stereo not given),TGI,[1],> 100 µM
same,TGI,[2],> 100 µM
same,TGI,[3],> 100 µM
same,TGI,[4],> 100 µM
same,TGI,[5],> 100 µM
same,TGI,[6],> 100 µM
same,TGI,[7],> 100 µM
same,TGI,[8],> 100 µM
same,TGI,[9],> 100 µM
Nc1nc(-c2ccccc2)c(CC(=O)O)s1,TGI,[3],> 100 µM
same,TGI,[4],> 100 µM
same,TGI,[10],> 100 µM
same,TGI,[5],> 100 µM
same,TGI,[6],> 100 µM
same,TGI,[7],> 100 µM
same,TGI,[8],> 100 µM
same,TGI,[9],> 100 µM
CC(C)N(C(=O)C12C3C4C1C1C4(C#N)C3C12C(=O)O)C(C)C (stereo not given),TGI,[1],> 82 µM
same,TGI,[2],> 100 µM
same,TGI,[3],> 100 µM
same,TGI,[4],> 100 µM
same,TGI,[5],> 100 µM
same,TGI,[6],> 100 µM
same,TGI,[7],> 100 µM
same,TGI,[8],> 100 µM
same,TGI,[9],> 100 µM
CN1CCCc2nc3ccccc3n2C1,TGI,[1],> 100 µM
same,TGI,[3],> 100 µM
same,TGI,[4],> 100 µM
same,TGI,[5],> 100 µM
same,TGI,[6],> 100 µM
same,TGI,[7],> 100 µM
same,TGI,[8],> 100 µM
same,TGI,[9],> 100 µM
C#Cc1cccc(NC(=O)/C=C\C(=O)O)c1,TGI,[1],> 100 µM
same,TGI,[4],> 100 µM
same,TGI,[5],> 100 µM
same,TGI,[6],> 100 µM
same,TGI,[7],> 100 µM
same,TGI,[8],> 100 µM
same,TGI,[9],> 100 µM
O=C(Nc1nc(=S)[nH][nH]1)C(=O)C(c1cnc2ccc([N+](=O)[O-])cc2n1)[N+](=O)[O-] (stereo not given),TGI,[1],> 100 µM
same,TGI,[2],> 100 µM
same,TGI,[3],> 100 µM
same,TGI,[4],> 100 µM
same,TGI,[5],> 100 µM
same,TGI,[6],> 100 µM
same,TGI,[7],> 100 µM
same,TGI,[8],> 100 µM
same,TGI,[9],> 100 µM
Cc1ccccc1Nc1cc(O)c2c(=O)cc(-c3ccccc3)oc2c1,GI50,[1],2.25 µM
same,TGI,[1],> 100 µM
same,GI50,[3],3.23 µM
same,TGI,[3],> 100 µM
same,GI50,[4],1.79 µM
same,TGI,[4],> 100 µM
same,GI50,[10],3.3 µM
same,TGI,[10],> 100 µM
same,GI50,[5],4.49 µM
same,TGI,[5],> 100 µM
same,GI50,[8],3.04 µM
same,TGI,[8],> 100 µM
same,GI50,[9],2.89 µM
same,TGI,[9],> 100 µM
CC(C)(C)OC(=O)N[C@H]1CC(=O)c2ccccc2N(CC(=O)O)C1=O,TGI,[1],> 100 µM
same,TGI,[2],> 100 µM
same,TGI,[3],> 100 µM
same,TGI,[4],> 100 µM
same,TGI,[5],> 100 µM
same,TGI,[6],> 100 µM
same,TGI,[7],> 100 µM
same,TGI,[9],> 100 µM
COS(=O)c1cc(Cl)cc(Cl)c1OC(=O)CSSCC(=O)Oc1c(Cl)cc(Cl)cc1S(=O)OC (stereo not given),TGI,[1],59.7 µM
same,TGI,[2],40.3 µM
same,TGI,[4],30.2 µM
same,TGI,[5],44.9 µM
same,TGI,[6],33.8 µM
same,TGI,[7],84 µM
same,TGI,[8],20.6 µM
same,TGI,[9],21.4 µM
CCOC(=O)C1C(c2ccc(Br)cc2)N(Cc2ccccc2)C(c2ccc(Br)cc2)C(C(=O)OC)S1(=O)=O (stereo not given),TGI,[1],> 100 µM
same,TGI,[2],> 100 µM
same,TGI,[3],> 100 µM
same,TGI,[4],> 100 µM
same,TGI,[5],> 100 µM
same,TGI,[6],> 100 µM
same,TGI,[7],> 100 µM
same,TGI,[9],> 100 µM
CC(C)(C)C1=NO[C@H]2[C@@H](NC(=O)c3ccccc3)CC[C@@H]12,TGI,[1],> 100 µM
same,TGI,[2],> 100 µM
same,TGI,[3],> 100 µM
same,TGI,[4],> 100 µM
same,TGI,[5],> 100 µM
same,TGI,[6],> 100 µM
same,TGI,[7],> 100 µM
same,TGI,[8],> 100 µM
same,TGI,[9],> 100 µM
N#Cc1c(-c2ccccc2)c(-c2ccccc2)cc2c(=O)c3ccc(Cl)cc3[nH]c12,TGI,[1],> 100 µM
same,TGI,[2],> 100 µM
same,TGI,[3],> 100 µM
same,TGI,[5],> 100 µM
same,TGI,[6],> 100 µM
same,TGI,[7],> 100 µM
same,TGI,[8],> 100 µM
same,TGI,[9],> 100 µM
Cc1nc2ccncc2[nH]1,TGI,[1],> 100 µM
same,TGI,[2],> 100 µM
same,TGI,[3],> 100 µM
same,TGI,[5],> 100 µM
same,TGI,[6],> 100 µM
same,TGI,[7],> 100 µM
same,TGI,[8],> 100 µM
same,TGI,[9],> 100 µM
N#Cc1ccccc1Sc1ccccc1N,TGI,[1],> 100 µM
same,TGI,[3],> 100 µM
same,TGI,[5],> 100 µM
same,TGI,[6],> 100 µM
same,TGI,[7],> 100 µM
same,TGI,[8],> 100 µM
same,TGI,[9],> 100 µM
